From publication PMC9728921, “Characterization of a KDM5 small molecule inhibitor with antiviral activity against hepatitis B virus” (PLOS ONE, 2022)
pIC50: −log10 of the molar value.

Experiments:
[1] = molecular target: T1, PRMT1 (Homo sapiens, UniProt Q99873); assay: Histone methyltransferase enzymatic assay, PRMT1; assay type: biochemical; conditions: enzyme conc. 100 nM
T1 construct: 2-371
Protocol: (§1) Histone methyltransferase assays were performed in 96-well half-area optiplates (PerkinElmer) at room temperature. All concentrations are final unless noted otherwise. Compounds were serially diluted in DMSO and the final DMSO concentration was 1%. A 24 μL reaction mixture contained compound, enzyme, 200 nM of nucleosome or histone substrate, 400 nM ^3H-SAM (83.1 Ci/mmol), 50 mM Tris-HCl (pH 8.0), 50 mM NaCl, 5 mM MgCl2, 1 mM DTT, and 0.01% Tween-20. The plate was sealed, mixed on a Titramax plate shaker at 1200 rpm for 30 sec, and incubated at room temperature for 60 min. The reaction was quenched by addition of 24 μL mixture containing 5 mg/mL PVT-PEI beads and 300 μM unlabeled SAM in water. The plate was sealed, mixed as previously noted, incubated overnight, and read on a TopCount plate reader (PerkinElmer).
(§2) Data was analyzed using GraphPad Prism 6.0 (La Jolla, CA). […] IC50 values were calculated as an average of at least two independent experiments.

[2] = molecular target: KDM1A (Homo sapiens, UniProt O60341); assay: KDM1A enzymatic assay (AlphaLISA, NAD); assay type: biochemical
Protocol: The KDM1 assay was conducted in the presence of NAD but without Fe(II) or ascorbic acid. A 10 μL reaction mixture containing 50 mM Tris-HCl (pH 9.0), 50 mM NaCl, 0.01% Tween-20, 0.25 nM of enzyme, and 1 mM NAD was pre-incubated for 10 min. The reaction was started by addition of 5 μL of H3(1–21)K4 me1, and the reaction mixture was incubated for 60 min. The reaction was quenched with 10 μL AlphaLISA Acceptor beads (1:200) in Epigenetics Buffer and the reaction mixture was incubated for 60 min. The Donor beads were diluted 1:200 into Epigenetics Buffer in the dark, and 10 μL of this mixture was added to each well and incubated for another 60 min in the dark. The assay plates were read on an Enspire plate reader (PerkinElmer) using a standard AlphaLISA program.
as §2

[3] = molecular target: T2, HDAC-1 (Homo sapiens, UniProt Q13547); assay: HDAC-1 histone deacetylase assay (FLUOR DE LYS); assay type: biochemical; conditions: enzyme conc. 5 nM
T2 construct: Full length; purchased BPS

[4] = molecular target: T3, KDM4B (Homo sapiens, UniProt O94953); assay: KDM4B enzymatic assay (AlphaLISA); assay type: biochemical
T3 sequence (O94953 1-1096): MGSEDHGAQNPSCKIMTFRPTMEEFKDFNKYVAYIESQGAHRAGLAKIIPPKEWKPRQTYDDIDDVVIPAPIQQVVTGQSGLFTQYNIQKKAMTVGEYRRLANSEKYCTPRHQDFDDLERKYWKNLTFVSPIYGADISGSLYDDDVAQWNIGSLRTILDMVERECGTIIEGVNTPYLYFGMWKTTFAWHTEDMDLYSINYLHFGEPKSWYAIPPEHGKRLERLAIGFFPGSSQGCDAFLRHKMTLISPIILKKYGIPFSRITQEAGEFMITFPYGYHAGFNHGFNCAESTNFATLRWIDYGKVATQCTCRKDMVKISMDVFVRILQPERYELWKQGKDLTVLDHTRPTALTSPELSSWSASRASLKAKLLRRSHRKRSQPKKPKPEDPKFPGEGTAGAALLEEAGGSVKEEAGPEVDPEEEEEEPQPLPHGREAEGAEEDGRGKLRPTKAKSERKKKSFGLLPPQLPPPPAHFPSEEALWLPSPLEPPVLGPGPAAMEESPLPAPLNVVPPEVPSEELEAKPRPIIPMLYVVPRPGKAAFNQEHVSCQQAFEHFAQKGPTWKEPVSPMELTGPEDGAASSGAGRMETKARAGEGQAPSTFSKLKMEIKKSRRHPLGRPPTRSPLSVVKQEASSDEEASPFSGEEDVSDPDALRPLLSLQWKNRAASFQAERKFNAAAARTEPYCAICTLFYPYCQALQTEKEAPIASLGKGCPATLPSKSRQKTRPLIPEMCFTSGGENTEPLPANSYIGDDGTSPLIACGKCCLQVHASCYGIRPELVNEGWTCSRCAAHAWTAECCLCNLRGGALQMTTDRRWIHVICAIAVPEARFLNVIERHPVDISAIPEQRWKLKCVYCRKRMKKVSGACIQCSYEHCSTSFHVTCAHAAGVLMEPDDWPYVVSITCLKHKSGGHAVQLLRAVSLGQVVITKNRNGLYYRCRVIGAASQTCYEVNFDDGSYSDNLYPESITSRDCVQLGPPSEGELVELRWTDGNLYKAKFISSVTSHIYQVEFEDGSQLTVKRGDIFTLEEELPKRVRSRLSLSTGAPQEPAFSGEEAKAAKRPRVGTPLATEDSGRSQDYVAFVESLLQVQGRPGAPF
Protocol: (§3) The following assay protocol was used for all histone demethylases tested except KDM1A, KDM5A, B, and D, which are described below. Compounds were serially diluted into a 384-well Alpha plate as a DMSO solution and mixed with 5 μL reaction buffer (buffer A) containing 50 mM HEPES (pH 7.0), 0.1% BSA, and 0.003% Tween-20. The enzyme of interest was pre-incubated with 15 μM of Fe^2+ for 10 min (except 30 min for KDM2B) in reaction buffer A. 5 μL of the enzyme mixture was added to each of the compound-containing wells and incubated for 10 min. The reaction was started by addition of a 5 μL mixture containing 300 nM peptide substrate, 75 μM L-ascorbic acid, and 30 μM α-ketoglutarate in buffer A. This final 15 μL of reaction mixture was incubated for 20 min for KDM5B and 1 hour for the other KDM enzymes. The reaction was quenched with 10 μL of diluted AlphaLISA Acceptor beads (1:400) in Epigenetics Buffer and incubated for 60 min. The Donor beads were diluted 1:400 into Epigenetics Buffer in the dark and 10 μL of this was added to each well and incubated for another 60 min in the dark. The assay plates were read on an Enspire plate reader (PerkinElmer) using a standard AlphaLISA program.
as §2

[5] = molecular target: T4, SETDB1 (Homo sapiens, UniProt Q15047); assay: Histone methyltransferase enzymatic assay, SETDB1; assay type: biochemical; conditions: enzyme conc. 100 nM
T4 construct: 510-1290
Protocol: as §1, §2

[6] = molecular target: KDM3A (Homo sapiens, UniProt Q9Y4C1); assay: KDM3A enzymatic assay (AlphaLISA); assay type: biochemical
Protocol: as §3, §2

[7] = molecular target: KDM4A (Homo sapiens, UniProt O75164); assay: KDM4A enzymatic assay (AlphaLISA); assay type: biochemical
Protocol: as §3, §2

[8] = Tolerability in rats; assay type: in vivo; conditions: GS-5801 doses tested (0.3-30 mg/kg p.o. once daily for five days)
Protocol: Animals were sacrificed 24 hours post final dose and approximately 100 mg of liver (left lateral lobe), lung, and kidney tissue was collected. Additionally, one mL of venous blood for PBMC isolation was collected into K2EDTA vacutainer tubes (Thermo Fisher; BD367835). […] Diluted whole blood was layered onto an equal volume of HISTOPAQUE-1077 (Sigma; 10771) gradient medium and centrifuged at 400 x g for 30 minutes with the centrifuge brake switch off. PBMCs were collected at the plasma-HISTOPAQUE-1077 interface and washed three times with DPBS by centrifugation at 500 x g for 10 minutes. Tissue samples and PBMCs were snap frozen using liquid nitrogen and stored at -80°C for subsequent H3K4me3:H3 analysis by ELISA.

KDM4A, sequence (O75164 whole entry): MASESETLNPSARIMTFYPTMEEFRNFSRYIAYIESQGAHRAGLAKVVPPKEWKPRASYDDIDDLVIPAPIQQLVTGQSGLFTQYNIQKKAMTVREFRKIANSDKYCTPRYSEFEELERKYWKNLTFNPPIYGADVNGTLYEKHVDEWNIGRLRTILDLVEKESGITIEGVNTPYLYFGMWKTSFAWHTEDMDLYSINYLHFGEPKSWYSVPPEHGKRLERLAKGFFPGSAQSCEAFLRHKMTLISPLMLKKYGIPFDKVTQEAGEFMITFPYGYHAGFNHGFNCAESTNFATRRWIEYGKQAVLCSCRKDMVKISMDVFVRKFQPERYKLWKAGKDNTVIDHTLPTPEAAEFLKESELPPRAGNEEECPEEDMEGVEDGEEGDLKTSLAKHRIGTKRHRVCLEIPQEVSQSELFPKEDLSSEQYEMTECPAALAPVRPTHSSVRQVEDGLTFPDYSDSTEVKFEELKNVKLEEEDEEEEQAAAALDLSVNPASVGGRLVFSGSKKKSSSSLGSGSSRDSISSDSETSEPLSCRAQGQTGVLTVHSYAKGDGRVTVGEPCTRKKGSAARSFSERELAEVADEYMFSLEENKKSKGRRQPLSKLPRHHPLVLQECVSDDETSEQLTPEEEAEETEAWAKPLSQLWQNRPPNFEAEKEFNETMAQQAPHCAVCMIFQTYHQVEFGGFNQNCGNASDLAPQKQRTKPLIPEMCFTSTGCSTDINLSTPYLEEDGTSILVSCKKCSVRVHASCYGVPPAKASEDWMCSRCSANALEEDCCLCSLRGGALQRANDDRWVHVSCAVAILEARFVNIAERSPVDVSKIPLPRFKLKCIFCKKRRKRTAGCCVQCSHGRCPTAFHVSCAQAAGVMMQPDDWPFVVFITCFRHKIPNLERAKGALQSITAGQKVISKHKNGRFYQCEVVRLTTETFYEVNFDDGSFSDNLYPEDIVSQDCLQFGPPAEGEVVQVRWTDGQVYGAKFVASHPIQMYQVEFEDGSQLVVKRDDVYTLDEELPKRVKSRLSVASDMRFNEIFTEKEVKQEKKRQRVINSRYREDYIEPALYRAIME
KDM3A, sequence (Q9Y4C1 whole entry): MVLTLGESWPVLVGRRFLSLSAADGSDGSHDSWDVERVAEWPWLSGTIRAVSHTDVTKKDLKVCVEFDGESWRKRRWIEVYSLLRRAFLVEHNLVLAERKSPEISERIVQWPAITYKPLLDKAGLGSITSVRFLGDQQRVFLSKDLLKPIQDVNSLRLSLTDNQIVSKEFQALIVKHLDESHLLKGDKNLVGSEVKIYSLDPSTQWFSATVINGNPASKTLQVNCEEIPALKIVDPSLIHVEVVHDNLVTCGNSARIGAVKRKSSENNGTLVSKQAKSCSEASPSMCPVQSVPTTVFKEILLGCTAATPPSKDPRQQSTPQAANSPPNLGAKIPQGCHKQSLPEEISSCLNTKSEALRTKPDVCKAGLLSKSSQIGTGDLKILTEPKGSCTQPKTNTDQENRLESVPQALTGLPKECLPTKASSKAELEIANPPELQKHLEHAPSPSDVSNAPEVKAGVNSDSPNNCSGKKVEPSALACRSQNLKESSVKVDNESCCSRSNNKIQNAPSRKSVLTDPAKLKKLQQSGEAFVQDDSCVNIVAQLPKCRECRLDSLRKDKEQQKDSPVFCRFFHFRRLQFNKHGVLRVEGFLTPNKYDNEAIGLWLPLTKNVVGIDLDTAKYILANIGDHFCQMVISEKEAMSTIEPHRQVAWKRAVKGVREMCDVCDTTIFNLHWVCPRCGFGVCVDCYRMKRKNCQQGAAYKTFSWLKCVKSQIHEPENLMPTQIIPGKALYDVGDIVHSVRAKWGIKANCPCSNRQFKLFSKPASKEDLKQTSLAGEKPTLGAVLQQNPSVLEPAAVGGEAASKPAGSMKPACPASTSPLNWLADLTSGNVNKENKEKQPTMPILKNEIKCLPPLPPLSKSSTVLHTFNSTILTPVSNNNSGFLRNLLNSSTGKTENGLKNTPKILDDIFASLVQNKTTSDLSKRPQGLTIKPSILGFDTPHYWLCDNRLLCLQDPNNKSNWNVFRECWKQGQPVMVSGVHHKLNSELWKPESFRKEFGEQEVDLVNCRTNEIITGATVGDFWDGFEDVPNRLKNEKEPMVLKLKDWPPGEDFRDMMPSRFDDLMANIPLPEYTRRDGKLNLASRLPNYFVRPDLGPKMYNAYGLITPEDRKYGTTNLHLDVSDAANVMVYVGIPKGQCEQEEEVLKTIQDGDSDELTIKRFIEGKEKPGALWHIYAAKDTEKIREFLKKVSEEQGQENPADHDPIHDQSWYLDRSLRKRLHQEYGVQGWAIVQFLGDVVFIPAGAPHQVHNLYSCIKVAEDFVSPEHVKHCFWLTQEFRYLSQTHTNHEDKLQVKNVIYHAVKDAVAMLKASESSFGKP
T2 sequence (Q13547 whole entry): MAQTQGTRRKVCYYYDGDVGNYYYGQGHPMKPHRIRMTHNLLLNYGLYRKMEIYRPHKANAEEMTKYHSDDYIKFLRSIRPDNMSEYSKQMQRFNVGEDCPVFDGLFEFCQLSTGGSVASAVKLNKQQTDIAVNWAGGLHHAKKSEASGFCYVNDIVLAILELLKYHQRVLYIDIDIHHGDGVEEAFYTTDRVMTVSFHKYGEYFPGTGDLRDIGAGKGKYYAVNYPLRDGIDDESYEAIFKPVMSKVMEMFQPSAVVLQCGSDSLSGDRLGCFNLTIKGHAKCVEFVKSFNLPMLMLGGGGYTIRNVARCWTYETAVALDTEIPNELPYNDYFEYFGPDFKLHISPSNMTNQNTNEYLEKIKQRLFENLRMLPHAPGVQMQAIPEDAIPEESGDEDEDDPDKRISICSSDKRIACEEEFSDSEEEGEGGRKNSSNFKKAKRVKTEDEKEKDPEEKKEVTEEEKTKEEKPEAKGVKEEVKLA
T1 sequence (Q99873 2-371): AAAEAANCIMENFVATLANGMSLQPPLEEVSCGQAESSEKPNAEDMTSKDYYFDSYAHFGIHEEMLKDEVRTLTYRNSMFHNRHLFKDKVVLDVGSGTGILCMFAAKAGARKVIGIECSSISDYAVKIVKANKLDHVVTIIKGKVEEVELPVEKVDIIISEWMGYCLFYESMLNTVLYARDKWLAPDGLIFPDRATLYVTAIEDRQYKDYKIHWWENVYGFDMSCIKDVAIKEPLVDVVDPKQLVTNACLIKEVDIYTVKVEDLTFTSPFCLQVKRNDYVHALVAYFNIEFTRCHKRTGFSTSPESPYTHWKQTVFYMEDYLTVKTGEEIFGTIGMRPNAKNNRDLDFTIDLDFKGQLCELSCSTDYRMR

Row | SMILES | pIC50 [1] | Fold Selectivity Compared to KDM5A ([2]; IC50 of KDM1A over KDM5A) | pIC50 ([2]; enzyme concentration 0.25 nM) | pIC50 [3] | Fold Selectivity Compared to KDM5A ([4]; IC50 of KDM4B over KDM5A) [fold] | pIC50 ([4]; enzyme concentration 1 nM) | pIC50 [5] | Fold Selectivity Compared to KDM5A ([6]; IC50 of KDM3A over KDM5A) | pIC50 ([6]; enzyme concentration 0.3 nM) | Fold Selectivity Compared to KDM5A ([7]; IC50 of KDM4A over KDM5A) [fold] | pIC50 ([7]; enzyme concentration 0.2 nM) | adverse effects [8]
1 | CCN(CCN(C)C)C(=O)CNCc1cc(C(=O)O)ccn1 [GS-080] | < 4.00 | > 278,000 fold | < 4.00 | < 4.00 | 13 | 8.33 | < 4.00 | > 4,720 fold | 5.77 | 20 | 8.14 | 
2 | CCOC(=O)c1ccnc(CNCC(=O)N(CC)CCN(C)C)c1 [GS-5801] |  |  |  |  |  |  |  |  |  |  |  | no adverse effects were observed
